Measurements: ChEMBL document CHEMBL1201862, “PubChem BioAssay data set” (2004)
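Assay format: 96-well plates, 48-hour exposure. The concentration for 50% growth inhibition is given as GI50.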 Active and inactive are the calls of the source. No stated cut-off is given here; in the data, active = GI50 up to about 1.1 µM and inactive = higher.

Assays:
Experiment in all cases: inhibition of tumour cell growth, NCI panel, 48 h
[1] = test system: A498
[2] = test system: DU-145
[3] = test system: HCC 2998
[4] = test system: HL-60
[5] = test system: HT-29
[6] = test system: Hs-578T
[7] = test system: MDA-MB-435
[8] = test system: MDA-N
[9] = test system: Malme-3M
[10] = test system: NCI-H226
[11] = test system: NCI/ADR-RES
[12] = test system: PC-3
[13] = test system: RPMI-8226
[14] = test system: SF-539
[15] = test system: SK-MEL-28
[16] = test system: SK-MEL-2
[17] = test system: SNB-75
[18] = test system: U-251
[19] = test system: KM12
[20] = test system: SK-OV-3

In the case of `Cc1cc(=O)oc2cc(OS(C)(=O)=O)ccc12`, the GI50 [1] was > 100 µM (inactive), the GI50 [2] was > 100 µM (inactive) and the GI50 [3] was > 100 µM (inactive). For the same compound, the GI50 [4] was > 100 µM (inactive), the GI50 [5] was > 100 µM (inactive) and the GI50 [6] was > 100 µM (inactive). The GI50 [7] was > 100 µM (inactive), the GI50 [8] was > 100 µM (inactive) and the GI50 [9] was > 100 µM (inactive). The GI50 [10] was > 100 µM (inactive), the GI50 [11] was > 100 µM (inactive) and the GI50 [12] was > 100 µM (inactive). The GI50 [13] was > 100 µM (inactive), the GI50 [14] was > 100 µM (inactive) and the GI50 [15] was > 100 µM (inactive). The GI50 [16] was > 100 µM (inactive), the GI50 [17] was > 100 µM (inactive) and the GI50 [18] was > 100 µM (inactive).

With `O=C(c1ccc(Cl)cc1)N(C(=S)OCCOc1ccccc1)c1ccccc1` the GI50 [1] was 14.9 µM (inactive), the GI50 [2] was 17.3 µM (inactive) and the GI50 [3] was 19.5 µM (inactive). The GI50 [4] was 18.6 µM (inactive), the GI50 [5] was 17.6 µM (inactive) and the GI50 [6] was 46.9 µM (inactive). For the same compound, the GI50 [19] was 19.1 µM (inactive), the GI50 [7] was 17 µM (inactive) and the GI50 [8] was 16.6 µM (inactive). The GI50 [9] was 29 µM (inactive), the GI50 [11] was 23.9 µM (inactive) and the GI50 [12] was 21.1 µM (inactive). For the same compound, the GI50 [13] was 18.1 µM (inactive), the GI50 [14] was 18.9 µM (inactive) and the GI50 [15] was 15.8 µM (inactive). The GI50 [16] was 22.1 µM (inactive), the GI50 [20] was 36.1 µM (inactive) and the GI50 [18] was 16.2 µM (inactive).

For `Cc1c(C(=O)c2ccccc2)[n+]([O-])c2cc(Cl)c(Cl)cc2[n+]1[O-]`, the GI50 [1] was 19.6 µM (inactive), the GI50 [2] was 16.1 µM (inactive) and the GI50 [3] was 1.56 µM (inactive). For the same compound, the GI50 [4] was 2.04 µM (inactive), the GI50 [5] was 14.4 µM (inactive) and the GI50 [6] was 6.34 µM (inactive). The GI50 [19] was 8.65 µM (inactive), the GI50 [7] was 11.9 µM (inactive) and the GI50 [8] was 12.3 µM (inactive). The GI50 [10] was 2.51 µM (inactive), the GI50 [11] was 17.9 µM (inactive) and the GI50 [12] was 17.4 µM (inactive). The GI50 [13] was 4.7 µM (inactive), the GI50 [14] was 17.2 µM (inactive) and the GI50 [15] was 14.7 µM (inactive). The GI50 [16] was 5.92 µM (inactive), the GI50 [20] was 19.6 µM (inactive) and the GI50 [17] was 0.0368 µM (active). The GI50 [18] was 15.6 µM (inactive).

In the case of `C#CCCOC1(OC)N=NC(C)(C)O1` (stereo not drawn), the GI50 [1] was > 100 µM (inactive), the GI50 [2] was > 100 µM (inactive) and the GI50 [3] was > 100 µM (inactive). For the same compound, the GI50 [4] was > 100 µM (inactive), the GI50 [5] was > 100 µM (inactive) and the GI50 [6] was > 100 µM (inactive). The GI50 [19] was > 100 µM (inactive), the GI50 [7] was > 100 µM (inactive) and the GI50 [8] was > 100 µM (inactive). For the same compound, the GI50 [9] was > 100 µM (inactive), the GI50 [10] was > 100 µM (inactive) and the GI50 [11] was > 100 µM (inactive). The GI50 [12] was > 100 µM (inactive), the GI50 [13] was > 100 µM (inactive) and the GI50 [14] was > 100 µM (inactive). For the same compound, the GI50 [15] was > 100 µM (inactive), the GI50 [16] was > 100 µM (inactive) and the GI50 [17] was > 100 µM (inactive). For the same compound, the GI50 [18] was > 100 µM (inactive).

In the case of `BrCc1ccc2ccc3ccc(CBr)nc3c2n1`, the GI50 [1] was 2.64 µM (inactive), the GI50 [2] was 8.18 µM (inactive) and the GI50 [3] was 2.86 µM (inactive). For the same compound, the GI50 [4] was 1.38 µM (inactive), the GI50 [5] was 1.95 µM (inactive) and the GI50 [6] was 17.9 µM (inactive). For the same compound, the GI50 [19] was 3.61 µM (inactive), the GI50 [7] was 4.12 µM (inactive) and the GI50 [8] was 2.74 µM (inactive). The GI50 [10] was 5.92 µM (inactive), the GI50 [11] was 1.86 µM (inactive) and the GI50 [12] was 1.79 µM (inactive). For the same compound, the GI50 [13] was 0.887 µM (active), the GI50 [14] was 4.67 µM (inactive) and the GI50 [15] was 2.81 µM (inactive). For the same compound, the GI50 [16] was 3.12 µM (inactive), the GI50 [20] was 3.08 µM (inactive) and the GI50 [17] was 1.32 µM (inactive). The GI50 [18] was 5.56 µM (inactive).

`CCOC(=O)C1=C(N2CCCC2)NC(=O)CC1=O` was tested, and the GI50 [1] was > 100 µM (inactive), the GI50 [2] was > 100 µM (inactive) and the GI50 [3] was > 100 µM (inactive). The GI50 [4] was > 100 µM (inactive), the GI50 [5] was > 100 µM (inactive) and the GI50 [6] was > 100 µM (inactive). For the same compound, the GI50 [19] was > 100 µM (inactive), the GI50 [7] was > 100 µM (inactive) and the GI50 [8] was > 100 µM (inactive). For the same compound, the GI50 [9] was > 100 µM (inactive), the GI50 [10] was > 100 µM (inactive) and the GI50 [11] was > 100 µM (inactive). The GI50 [12] was > 100 µM (inactive), the GI50 [13] was > 100 µM (inactive) and the GI50 [14] was > 100 µM (inactive). For the same compound, the GI50 [15] was > 100 µM (inactive), the GI50 [16] was > 100 µM (inactive) and the GI50 [20] was > 100 µM (inactive). For the same compound, the GI50 [18] was > 100 µM (inactive).

With `Nc1ncnc2c1ccn2C/C=C/CO` the GI50 [1] was > 100 µM (inactive), the GI50 [2] was > 100 µM (inactive) and the GI50 [3] was > 100 µM (inactive). For the same compound, the GI50 [4] was > 100 µM (inactive), the GI50 [5] was > 100 µM (inactive) and the GI50 [6] was > 100 µM (inactive). The GI50 [19] was > 100 µM (inactive), the GI50 [7] was > 100 µM (inactive) and the GI50 [8] was > 100 µM (inactive). For the same compound, the GI50 [9] was > 100 µM (inactive), the GI50 [11] was > 100 µM (inactive) and the GI50 [12] was > 100 µM (inactive). The GI50 [13] was > 100 µM (inactive), the GI50 [14] was > 100 µM (inactive) and the GI50 [15] was > 100 µM (inactive). For the same compound, the GI50 [16] was > 100 µM (inactive), the GI50 [20] was > 100 µM (inactive) and the GI50 [17] was > 100 µM (inactive). For the same compound, the GI50 [18] was > 100 µM (inactive).

With `C=C1OC(c2ccccc2NC)=NC12CCCCC2` the GI50 [1] was > 100 µM (inactive), the GI50 [2] was > 100 µM (inactive) and the GI50 [3] was > 100 µM (inactive). The GI50 [4] was > 100 µM (inactive), the GI50 [5] was > 100 µM (inactive) and the GI50 [6] was > 100 µM (inactive). For the same compound, the GI50 [19] was > 100 µM (inactive), the GI50 [7] was > 100 µM (inactive) and the GI50 [8] was > 100 µM (inactive). For the same compound, the GI50 [9] was > 100 µM (inactive), the GI50 [10] was > 100 µM (inactive) and the GI50 [11] was > 100 µM (inactive). For the same compound, the GI50 [12] was > 100 µM (inactive), the GI50 [14] was > 100 µM (inactive) and the GI50 [15] was > 100 µM (inactive). For the same compound, the GI50 [20] was > 100 µM (inactive) and the GI50 [18] was > 100 µM (inactive).

For `CN1C=Cc2nccc3cc4c(c1c23)OCO4`, the GI50 [1] was 4 µM (inactive), the GI50 [2] was 5.78 µM (inactive) and the GI50 [3] was 4.03 µM (inactive). For the same compound, the GI50 [4] was > 20.3 µM (inactive), the GI50 [5] was 2 µM (inactive) and the GI50 [6] was 13.5 µM (inactive). For the same compound, the GI50 [19] was 2.59 µM (inactive), the GI50 [7] was 3.25 µM (inactive) and the GI50 [8] was 2.27 µM (inactive). For the same compound, the GI50 [9] was 0.118 µM (active), the GI50 [10] was 2.83 µM (inactive) and the GI50 [11] was 11.9 µM (inactive). The GI50 [12] was 3.21 µM (inactive), the GI50 [13] was 1.04 µM (active) and the GI50 [15] was 4.83 µM (inactive). For the same compound, the GI50 [16] was 3.18 µM (inactive), the GI50 [20] was 8.39 µM (inactive) and the GI50 [17] was 1.49 µM (inactive). The GI50 [18] was 3.09 µM (inactive).

In the case of `CN(C(=O)Cc1cc(Cl)c(Cl)cc1NC(=O)CN)[C@H]1CCCC[C@@H]1N1CCCC1`, the GI50 [1] was 20.2 µM (inactive), the GI50 [2] was > 100 µM (inactive) and the GI50 [3] was 16.6 µM (inactive). For the same compound, the GI50 [4] was 19.1 µM (inactive), the GI50 [5] was 20.7 µM (inactive) and the GI50 [6] was 23.1 µM (inactive). For the same compound, the GI50 [19] was 47.4 µM (inactive), the GI50 [7] was 16.1 µM (inactive) and the GI50 [8] was 15.3 µM (inactive). The GI50 [9] was 20.8 µM (inactive), the GI50 [11] was > 100 µM (inactive) and the GI50 [12] was 37.1 µM (inactive). For the same compound, the GI50 [13] was 30.8 µM (inactive), the GI50 [16] was 18.8 µM (inactive) and the GI50 [20] was > 100 µM (inactive). For the same compound, the GI50 [17] was 20.7 µM (inactive) and the GI50 [18] was 17.8 µM (inactive).

For `CC(NC(=O)C1(N)CCCC1)C(=O)O` (stereo not drawn), the GI50 [1] was > 100 µM (inactive), the GI50 [2] was > 100 µM (inactive) and the GI50 [3] was > 100 µM (inactive). For the same compound, the GI50 [4] was > 100 µM (inactive), the GI50 [5] was > 100 µM (inactive) and the GI50 [6] was > 100 µM (inactive). The GI50 [19] was > 100 µM (inactive), the GI50 [7] was > 100 µM (inactive) and the GI50 [8] was > 100 µM (inactive). For the same compound, the GI50 [9] was > 100 µM (inactive), the GI50 [10] was > 100 µM (inactive) and the GI50 [11] was > 100 µM (inactive). The GI50 [12] was > 100 µM (inactive), the GI50 [13] was > 100 µM (inactive) and the GI50 [15] was > 100 µM (inactive). The GI50 [16] was > 100 µM (inactive), the GI50 [20] was > 100 µM (inactive) and the GI50 [17] was > 100 µM (inactive). The GI50 [18] was > 100 µM (inactive).
